From PubChem BioAssay AID248 (DTP/NCI, 2004)
“And” between values parts separate entries of the source, which are not always exact repeats. Identical values can stand only once. Inconclusive results and toxic doses are left out. Cut-off read from the data, not from the text of the source: active = T/C of 150% or more; inactive = T/C below 125%.

Test system: L1210 leukemia ip in BDF1 mice, survival T/C
Test: NCI In Vivo Anticancer Drug Screen. Data for tumor model L1210 Leukemia (intraperitoneal) in B6D2F1 (BDF1) mice
Details: endpoint: mean survival time, higher = longer survival
In short: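 Transplantable tumor model; survival measured in treated vs vehicle control mice. Value = treated/control.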

[1] = dose: 100.0 mg/kg/injection, schedule: Q01DX009 (ip), vehicle: Klucel (hydroxypropylcellulose) (HPC)
[2] = dose: 100.0 mg/kg/injection, schedule: Q04DX003 (ip), vehicle: saline with Tween-80
[3] = dose: 200.0 mg/kg/injection, schedule: Q01DX009 (ip), vehicle: Klucel (hydroxypropylcellulose) (HPC)
[4] = dose: 200.0 mg/kg/injection, schedule: Q04DX003 (ip), vehicle: saline with Tween-80
[5] = dose: 400.0 mg/kg/injection, schedule: Q01DX009 (ip), vehicle: Klucel (hydroxypropylcellulose) (HPC)
[6] = dose: 100.0 mg/kg/injection, schedule: Q01DX001 (ip), vehicle: saline
[7] = dose: 200.0 mg/kg/injection, schedule: Q01DX001 (ip), vehicle: saline
[8] = dose: 400.0 mg/kg/injection, schedule: Q01DX001 (ip), vehicle: saline
[9] = dose: 100.0 mg/kg/injection, schedule: Q04DX003 (ip), vehicle: saline
[10] = dose: 200.0 mg/kg/injection, schedule: Q04DX003 (ip), vehicle: saline
[11] = dose: 100.0 mg/kg/injection, schedule: Q01DX001 (ip), vehicle: carboxymethylcellulose (CMC)
[12] = dose: 200.0 mg/kg/injection, schedule: Q01DX001 (ip), vehicle: carboxymethylcellulose (CMC)

Measured: T/C

COc1ccc(C=Nc2ccc(C(=O)O)cc2)cc1
inactive: dose: 100.0 mg/kg/injection, schedule: Q04DX002 (ip), vehicle: saline with Tween-80 100 % of control | dose: 200.0 mg/kg/injection, schedule: Q04DX002 (ip), vehicle: saline with Tween-80 110 % of control | dose: 400.0 mg/kg/injection, schedule: Q04DX002 (ip), vehicle: saline with Tween-80 89 % of control

O=C(Oc1ccccc1)c1ccccc1Cl
inactive: [1] 102 % of control | dose: 100.0 mg/kg/injection, schedule: Q01DX009 (ip), vehicle: saline with Tween-80 96 % of control | dose: 100.0 mg/kg/injection, schedule: Q04DX003 (ip), vehicle: Klucel (hydroxypropylcellulose) (HPC) 96 % of control | [2] 100 % of control | [3] 98 % of control | dose: 200.0 mg/kg/injection, schedule: Q01DX009 (ip), vehicle: saline with Tween-80 101 % of control | dose: 200.0 mg/kg/injection, schedule: Q04DX003 (ip), vehicle: Klucel (hydroxypropylcellulose) (HPC) 96 % of control | [4] 100 % of control | [5] 95 % of control | dose: 400.0 mg/kg/injection, schedule: Q01DX009 (ip), vehicle: saline with Tween-80 97 % of control | dose: 400.0 mg/kg/injection, schedule: Q04DX003 (ip), vehicle: Klucel (hydroxypropylcellulose) (HPC) 98 % of control | dose: 400.0 mg/kg/injection, schedule: Q04DX003 (ip), vehicle: saline with Tween-80 110 % of control

O=C1Nc2ccccc2C12Nc1cccnc1N2 (stereo unspecified)
inactive: dose: 100.0 mg/kg/injection, schedule: Q01DX001 (ip), vehicle: saline with Tween-80 97 % of control | dose: 200.0 mg/kg/injection, schedule: Q01DX001 (ip), vehicle: saline with Tween-80 87 % of control

Cc1n[nH]c(=S)n1NC=O
inactive: [6] 94 % of control | [7] 94 % of control | [8] 90 % of control

CC(=O)NN(CCN(NC(C)=O)C(C)=O)C(C)=O
inactive: [9] 104 % of control | [10] 95 % of control | dose: 400.0 mg/kg/injection, schedule: Q04DX003 (ip), vehicle: saline 101 % of control

CCOC(=O)C(CC(C(=O)OCC)C(=O)c1ccccc1)C(=O)c1ccccc1 (stereo unspecified)
inactive: [6] 92 % of control | [7] 90 % of control | [8] 97 % of control

CCCCNC(=O)Nc1cc(C)c(C)cc1C
inactive: dose: 25.0 mg/kg/injection, schedule: Q01DX009 (ip), vehicle: gum acacia 106 % of control | dose: 50.0 mg/kg/injection, schedule: Q01DX009 (ip), vehicle: gum acacia 96 % of control | dose: 100.0 mg/kg/injection, schedule: Q01DX009 (ip), vehicle: gum acacia 88 % of control | dose: 100.0 mg/kg/injection, schedule: Q04DX003 (ip), vehicle: gum acacia 91 % of control | dose: 200.0 mg/kg/injection, schedule: Q01DX009 (ip), vehicle: gum acacia 92 % of control | dose: 200.0 mg/kg/injection, schedule: Q04DX003 (ip), vehicle: gum acacia 96 % of control | dose: 400.0 mg/kg/injection, schedule: Q04DX003 (ip), vehicle: gum acacia 87 % of control

O=C(O)c1cccc(Nc2ccccc2C(=O)O)c1
inactive: [11] 90 % of control | [12] 92 % of control

CC(=O)Nc1ccc(C(=O)O)cc1[N+](=O)[O-]
inactive: [11] 99 % of control | dose: 100.0 mg/kg/injection, schedule: Q01DX009 (ip), vehicle: carboxymethylcellulose (CMC) 95 % of control and 105 % of control | dose: 100.0 mg/kg/injection, schedule: Q04DX002 (ip), vehicle: Klucel (hydroxypropylcellulose) (HPC) 95 % of control | dose: 100.0 mg/kg/injection, schedule: Q04DX002 (ip), vehicle: carboxymethylcellulose (CMC) 106 % of control and 90 % of control | dose: 100.0 mg/kg/injection, schedule: Q04DX003 (ip), vehicle: carboxymethylcellulose (CMC) 97 % of control | [12] 97 % of control | dose: 200.0 mg/kg/injection, schedule: Q01DX009 (ip), vehicle: carboxymethylcellulose (CMC) 98 % of control and 107 % of control | dose: 200.0 mg/kg/injection, schedule: Q04DX002 (ip), vehicle: Klucel (hydroxypropylcellulose) (HPC) 98 % of control | dose: 200.0 mg/kg/injection, schedule: Q04DX002 (ip), vehicle: carboxymethylcellulose (CMC) 93 % of control and 101 % of control | dose: 200.0 mg/kg/injection, schedule: Q04DX003 (ip), vehicle: carboxymethylcellulose (CMC) 105 % of control | dose: 400.0 mg/kg/injection, schedule: Q01DX009 (ip), vehicle: carboxymethylcellulose (CMC) 93 % of control and 91 % of control | dose: 400.0 mg/kg/injection, schedule: Q04DX002 (ip), vehicle: Klucel (hydroxypropylcellulose) (HPC) 98 % of control | dose: 400.0 mg/kg/injection, schedule: Q04DX002 (ip), vehicle: carboxymethylcellulose (CMC) 93 % of control and 90 % of control | dose: 400.0 mg/kg/injection, schedule: Q04DX003 (ip), vehicle: carboxymethylcellulose (CMC) 91 % of control

N#C/C([S-])=C(/[S-])C#N.N#C/C([S-])=C(/[S-])C#N.[Co].c1ccc([P+](c2ccccc2)(c2ccccc2)c2ccccc2)cc1
inactive: dose: 75.0 mg/kg/injection, schedule: Q01DX009 (ip), vehicle: Klucel (hydroxypropylcellulose) (HPC) 121 % of control | dose: 75.0 mg/kg/injection, schedule: Q04DX003 (ip), vehicle: saline 100 % of control | dose: 150.0 mg/kg/injection, schedule: Q01DX009 (ip), vehicle: Klucel (hydroxypropylcellulose) (HPC) 110 % of control | dose: 150.0 mg/kg/injection, schedule: Q04DX003 (ip), vehicle: saline 110 % of control | dose: 300.0 mg/kg/injection, schedule: Q01DX009 (ip), vehicle: Klucel (hydroxypropylcellulose) (HPC) 103 % of control | dose: 300.0 mg/kg/injection, schedule: Q04DX003 (ip), vehicle: saline 98 % of control

CCCCC#CC(=O)OCCC
inactive: [2] 94 % of control | [4] 99 % of control

O=C(OC1C2C=CC1C1C(=O)NC21)c1ccccc1 (stereo unspecified)
inactive: dose: 75.0 mg/kg/injection, schedule: Q01DX001 (ip), vehicle: carboxymethylcellulose (CMC) 97 % of control | dose: 150.0 mg/kg/injection, schedule: Q01DX001 (ip), vehicle: carboxymethylcellulose (CMC) 102 % of control | dose: 300.0 mg/kg/injection, schedule: Q01DX001 (ip), vehicle: carboxymethylcellulose (CMC) 113 % of control

CC(=O)OC1C(C)OC(n2cnc3c(=O)[nH]cnc32)C1OC(C)=O (stereo unspecified)
inactive: dose: 50.0 mg/kg/injection, schedule: Q01DX001 (ip), vehicle: carboxymethylcellulose (CMC) 106 % of control | [11] 106 % of control | [12] 108 % of control | dose: 400.0 mg/kg/injection, schedule: Q01DX001 (ip), vehicle: carboxymethylcellulose (CMC) 101 % of control

CCc1ccccc1NC(=O)N(Cc1ccccc1)Cc1ccccc1
inactive: [1] 101 % of control | [3] 97 % of control | [5] 96 % of control

FC(F)(F)c1ccc2c(c1)N(CCCN1CC[N+]3(CCOCC3)CC1)c1ccccc1S2
inactive: dose: 6.25 mg/kg/injection, schedule: Q01DX009 (ip), vehicle: saline 97 % of control | dose: 12.5 mg/kg/injection, schedule: Q01DX009 (ip), vehicle: saline 95 % of control | dose: 12.5 mg/kg/injection, schedule: Q04DX003 (ip), vehicle: saline 114 % of control | dose: 25.0 mg/kg/injection, schedule: Q04DX003 (ip), vehicle: saline 91 % of control

CCOP(=O)(OCC)OCCCN(CC)CC
inactive: dose: 50.0 mg/kg/injection, schedule: Q01DX009 (ip), vehicle: saline 101 % of control | dose: 100.0 mg/kg/injection, schedule: Q01DX009 (ip), vehicle: saline 96 % of control and 114 % of control | [9] 101 % of control | dose: 200.0 mg/kg/injection, schedule: Q01DX009 (ip), vehicle: saline 94 % of control and 105 % of control | [10] 98 % of control
